“And” between values parts separate entries of the source, which are not always exact repeats. Identical values can stand only once. Like-named read-outs stand apart in the source and are kept apart here.
Experiments:
[1] = tested on: calcium-permeable AMPA receptors (CP-AMPARs); assay: Whole-cell patch clamp, block of kainate-induced currents in striatal giant interneurons; assay type: cell-based, rat
Protocol: (§1) The rats were anesthetised with sevoflurane and then decapitated. […] All experiments were performed at room temperature.
(§2) Pentamidine isethionate (P-155) was from Alomone laboratories.
(§3) The voltage dependence of compounds action was analysed by Woodhull model for permeable blockers ([Woodhull, 1973]; [Tikhonova et al., 2008]). According to this model, the voltage dependence of steady-state blockade is given by Equation 1: BV=100%−100%/1+C/KbexpF/RT zδb V+Kp exp−F/RT zδp V (1) where V is voltage, B is level of block (%), C is concentration of the drug, z is molecular charge, and R, F and T have their standard meanings. Kb is the affinity of a drug for the channel. The δb value reflects the fraction of membrane electric field that the charged blocking molecule crosses on its pathway between the external media and the binding site in the channel (where the total field has a value of 1). Parameters Kp and δp describe permeation through the channel. […] For this reason, we used Equation 2, which takes into account the possibility of inhibitor to bind also at superficial site ([Nikolaev and Tikhonov, 2023]), assuming that the binding to the deep and superficial site is independent. BV=100%−100%/1+C/KbexpF/RT zδb V+Kp exp−F/RT zδp V+C/Kvin+C^2/Kvin KbexpF/RT zδb V+Kp exp−F/RT zδp V (2)
(§4) All experimental data are presented as the mean ± SD estimated from at least four experiments (cells). Significance of the effects was tested with t-tests. Differences were considered significant at p < 0.05. Concentration dependencies were approximated by Hill equation. Voltage dependencies were approximated by Equation 1 or 2. […] Then all data was pooled together and the parameters of voltage dependence were estimated using the fitting of all measurements. For each holding potential ≥4 cells were used. Voltage dependence parameters (binding constants and δb values) are shown as the result of the fitting ± approximation errors.

NMDA receptors = molecular target: NMDA receptors; parameters: method as in Zhigulin and Barygin, 2023; conditions: ref Zhigulin and Barygin, 2023, cited from earlier work; for IC50: read-out: IC50 at -80mV, μM NMDAR; for δb NMDAR / Kb: channel site; for Kb: read-out: Kb, μM NMDAR; for Kd: superficial site, read-out: Kvin, μM NMDAR
[2] = molecular target: T1, calcium-impermeable AMPA receptors (CI-AMPARs) (Rattus norvegicus, UniProt P19490+P19491, Q607R); assay: Whole-cell patch clamp, kainate-induced currents in hippocampal CA1 pyramidal neurons; assay type: cell-based; conditions: for δb CI-AMPAR: fixed δb values obtained from the CP-AMPARs data; for inhibition at 200 µM: furamidine 50 µM
Protocol: as §1, §2, §3, §4

[3] = tested on: calcium-permeable AMPA receptors (CP-AMPARs); parameters: method as in Zhigulin et al., 2022; conditions: −80 mV, ref Zhigulin et al., 2022, cited from earlier work
[4] = molecular target: T1, calcium-impermeable AMPA receptors (CI-AMPARs); parameters: method as in Zhigulin et al., 2022; conditions: 100 µM compound, −80 mV; ref Zhigulin et al., 2022; cited from earlier work
[5] = molecular target: T1, calcium-impermeable AMPA receptors (CI-AMPARs); assay: Whole-cell patch clamp, glutamate-induced currents in hippocampal CA1 pyramidal neurons
Protocol: The rats were anesthetised with sevoflurane and then decapitated. The brains were brought out quickly and cooled to 2°C–4°C. Transverse striatal or hippocampal slices were cut using a vibratome (Campden Instruments) and stored in a solution containing (in mM): NaCl 124, KCl 5, CaCl2 1.3, MgCl2 2.0, NaHCO3 26, NaH2PO4 1.24, D-glucose 10, aerated with carbogen (95% O2, 5% CO2). All experiments were performed at room temperature.
Vibrodissociation method ([Vorobjev, 1991]; [Jun et al., 2011]) was used to free CA1 pyramidal neurons or giant striatal interneurons from slices. This method allows isolating cells without enzymatic treatment and keep them in more native state. […] The antagonism of CI-AMPARs was studied on pyramidal neurons from the CA1 area of the hippocampus. These cells were isolated from the stratum pyramidale and distinguished from non-pyramidal cells on the basis of pyramidal-like somata and preserved apical dendrites.
To record membrane currents in response to applications of kainate or glutamate the whole-cell configuration of patch clamp technique was used. Series resistance (<20 MΩ) was compensated by 70%–80% and monitored during experiments. […]
AMPA receptors were activated with 100 µM kainate or 1 mM glutamate unless otherwise stated. […] The effects of compounds on steady-state currents for different drug concentrations were measured at −80 mV holding voltages. […]

[6] = 100 µM compound, kainate-induced current, −80 mV
[7] = kainate-induced current, −80 mV; read-out: IC50, µM CP-AMPARs
[8] = voltage dependence fitted by eq. 1; read-out: Kb, µM CP-AMPARs (binding to channel site)
[9] = voltage dependence −140 to +40 mV fitted by eq. 1
[10] = −80 mV; IEM-1925 1 µM, pentamidine 50 μM

T1 sequence (P19491 22-883 Q607R): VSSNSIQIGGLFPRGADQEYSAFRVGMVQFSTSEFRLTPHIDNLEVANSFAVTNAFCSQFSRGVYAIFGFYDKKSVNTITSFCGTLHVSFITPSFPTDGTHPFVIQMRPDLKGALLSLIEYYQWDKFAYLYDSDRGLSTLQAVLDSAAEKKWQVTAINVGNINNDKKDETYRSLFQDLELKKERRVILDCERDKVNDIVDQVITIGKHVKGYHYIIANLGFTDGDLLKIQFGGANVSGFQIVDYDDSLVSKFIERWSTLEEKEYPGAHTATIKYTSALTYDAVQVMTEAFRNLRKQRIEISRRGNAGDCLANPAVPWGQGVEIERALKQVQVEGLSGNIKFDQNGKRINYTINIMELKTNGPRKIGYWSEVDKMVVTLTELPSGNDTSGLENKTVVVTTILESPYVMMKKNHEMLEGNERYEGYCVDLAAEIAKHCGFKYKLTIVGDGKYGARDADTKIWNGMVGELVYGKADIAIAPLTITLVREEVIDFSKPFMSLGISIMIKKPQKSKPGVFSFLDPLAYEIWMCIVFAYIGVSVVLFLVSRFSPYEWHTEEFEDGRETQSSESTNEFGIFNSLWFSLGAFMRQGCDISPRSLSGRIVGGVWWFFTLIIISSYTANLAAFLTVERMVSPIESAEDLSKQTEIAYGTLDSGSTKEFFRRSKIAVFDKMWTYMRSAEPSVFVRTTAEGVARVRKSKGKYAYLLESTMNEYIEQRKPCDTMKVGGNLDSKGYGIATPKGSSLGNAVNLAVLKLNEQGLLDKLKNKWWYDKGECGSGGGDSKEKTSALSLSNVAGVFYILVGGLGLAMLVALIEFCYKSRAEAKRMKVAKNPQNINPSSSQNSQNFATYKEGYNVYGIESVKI
T1 sequence (P19490 19-907): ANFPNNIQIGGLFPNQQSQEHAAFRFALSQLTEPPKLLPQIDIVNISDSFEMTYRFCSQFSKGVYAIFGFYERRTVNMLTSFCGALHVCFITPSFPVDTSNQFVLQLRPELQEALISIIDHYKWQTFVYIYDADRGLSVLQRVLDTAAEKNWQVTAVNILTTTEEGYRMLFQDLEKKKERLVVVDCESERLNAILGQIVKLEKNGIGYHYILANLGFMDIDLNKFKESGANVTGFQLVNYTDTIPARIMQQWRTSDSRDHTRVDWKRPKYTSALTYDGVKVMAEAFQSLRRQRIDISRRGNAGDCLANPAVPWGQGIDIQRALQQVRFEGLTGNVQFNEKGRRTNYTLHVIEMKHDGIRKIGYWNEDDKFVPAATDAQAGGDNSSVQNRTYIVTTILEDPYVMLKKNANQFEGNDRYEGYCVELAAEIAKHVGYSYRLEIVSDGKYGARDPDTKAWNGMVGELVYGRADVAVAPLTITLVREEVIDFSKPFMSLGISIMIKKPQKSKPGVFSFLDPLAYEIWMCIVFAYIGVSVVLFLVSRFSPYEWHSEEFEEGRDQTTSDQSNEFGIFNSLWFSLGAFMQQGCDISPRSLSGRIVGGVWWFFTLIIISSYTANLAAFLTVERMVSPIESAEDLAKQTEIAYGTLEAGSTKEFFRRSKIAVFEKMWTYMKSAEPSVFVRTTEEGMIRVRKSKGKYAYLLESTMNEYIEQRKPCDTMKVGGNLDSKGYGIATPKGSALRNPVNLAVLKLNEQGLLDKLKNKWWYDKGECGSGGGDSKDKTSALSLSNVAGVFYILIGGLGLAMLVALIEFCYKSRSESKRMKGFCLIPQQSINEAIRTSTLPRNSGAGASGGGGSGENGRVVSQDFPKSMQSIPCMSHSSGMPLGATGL

Row | Compound | Block at 100 µM, % CP-AMPARs [1, 6] | IC50 [1, 7] | IC50 (NMDA receptors; −80 mV) | Kb [1, 8] | δb CI-AMPAR [2] | δb NMDAR (NMDA receptors) | Kb (NMDA receptors) | Kd (NMDA receptors) | δb CP-AMPARs (fraction of membrane electric field to channel site) [1, 9] | other results
1 | CN(C)C(=O)COC(=O)Cc1ccc(OC(=O)c2ccc(NC(=N)N)cc2)cc1 [Camostat] | 16 ± 4 (n=4) % | > 100 µM | > 100 µM | – | – | – | – | – | – | Block at 100 µM, % CP-AMPARs ([1]; 100 µM compound, kainate-induced current, −80 mV; listed as camostat): < 50%; IC50 at -80mV, μM NMDAR (NMDA receptors; −80 mV): ineffective
2 | N=C(N)c1ccc(-c2cc3ccc(C(=N)N)cc3[nH]2)cc1 [DAPI, 4′,6-diamidino-2-phenylindole] | 83 ± 4 (n=4) % | 27 ± 1 µM | 3.1 µM | 5.4 ± 1.2 µM | 0.65 | 0.55 | 5000 µM | 3.2 µM | – | Block at 100 µM, % CI-AMPARs [2, 6]: 64 ± 5 (n=6) %; Kb ([2]; fitted by eq. 2 with fixed δb values from CP-AMPARs data, read-out: Kb, µM CI-AMPARs (binding to channel site)): 24 ± 7 µM; Kd ([2]; fitted by eq. 2 with fixed δb values from CP-AMPARs data, read-out: Kvin, µM CI-AMPARs (binding to superficial site)): 62 ± 6 µM; IC50 ([2]; kainate-induced current, −80 mV): 59 ± 9 µM
3 | N=C(N)c1ccc(/N=N/Nc2ccc(C(=N)N)cc2)cc1 [Diminazene] | – | – | 13 µM | 47 ± 5 µM | 0.65 | 0.55 | 1500 µM | 14 µM | 0.64 ± 0.05 and 0.65 | δb CP-AMPARs (fraction of membrane electric field to channel site) ([1]; voltage dependence −140 to +40 mV fitted by eq. 1; listed as diminazene): around 0.7; Block at 100 µM, % CP-AMPARs ([3]; 100 µM compound): 69 ± 4 %; IC50 [3]: 60 ± 11 µM; Block at 100 µM, % CI-AMPARs [4]: 31 ± 7 %
4 | N=C(N)c1ccc(-c2ccc(-c3ccc(C(=N)N)cc3)o2)cc1 [Furamidine] | 79 ± 7 (n=4) % | – | 0.64 µM | – | 0.7 | 0.55 | 22 µM | 3.3 µM | 0.72 ± 0.15 and 0.7 | Block at 100 µM, % CP-AMPARs ([1]; 100 µM compound, kainate-induced current, −80 mV; listed as furamidine): 75–80%; IC50 ([1]; read-out: IC50, µM CP-AMPARs; kainate-induced current, −80 mV): 38 µM; Kb ([1]; read-out: Kb, µM CP-AMPARs (binding to channel site); voltage dependence fitted by eq. 1): 15 µM; δb CP-AMPARs (fraction of membrane electric field to channel site) ([1]; voltage dependence −140 to +40 mV fitted by eq. 1; listed as furamidine): around 0.7
5 | CCOC(=O)c1ccc(OC(=O)CCCCCNC(=N)N)cc1 [Gabexate] | 30 ± 4 (n=4) % | > 100 µM | 16 µM | – | – | 0.55 | 800 µM | 25 µM | – | –
6 | N=C(N)c1ccc2cc(OC(=O)c3ccc(N=C(N)N)cc3)ccc2c1 [Nafamostat] | 60 ± 11 (n=4) % | 55 ± 24 µM | 0.2 µM | 9 ± 4 µM | 0.75 | 0.55 | 11 µM | 3 µM | 0.76 ± 0.16 and 0.75 | IC50 ([1]; kainate-induced current, −80 mV; listed as nafamostat; read-out: IC50, µM CP-AMPARs): ~55 µM; Kb ([1]; voltage dependence fitted by eq. 1; listed as nafamostat; read-out: Kb, µM CP-AMPARs (binding to channel site)): 5 to 10 µM; δb CP-AMPARs (fraction of membrane electric field to channel site) ([1]; voltage dependence −140 to +40 mV fitted by eq. 1; listed as nafamostat): around 0.7
7 | N=C(N)c1ccc(OCCCCCOc2ccc(C(=N)N)cc2)cc1 [Pentamidine] | 70 ± 4 (n=4) % | 43 ± 9 µM | 0.41 µM | 36 ± 4 µM | 0.5 | 0.7 | 27 µM | 10 µM | 0.49 ± 0.04 and 0.5 | washout kinetics τ of perampanel and pentamidine mixture ([1]; 100 nM perampanel + 500 µM pentamidine, in presence of kainate): 620 ± 470 ms; block of CP-AMPARs at +40 mV ([1]; 100 μM, +40 mV, representative example): 27%; block of CP-AMPARs at −40 mV ([1]; 100 μM, −40 mV, representative example): 78%; rectification index (current ratio between +40 mV and −40 mV) ([1]; 10 mM in pipette solution, kainate-induced responses): 0.10 ± 0.04; washout kinetics τ, CP-AMPARs ([1]; in presence of kainate): 120 ± 60 ms; inhibition at 100 µM ([2]; read-out: Block at 100 µM, % CI-AMPARs, 100 µM compound, kainate-induced current, −80 mV): 39 ± 5%; inhibition at 200 µM ([2]; read-out: block of CI-AMPARs with 50 µM kainate, −80 mV, pentamidine 200 µM, no cyclothiazide): 38%; inhibition at 200 µM ([2]; read-out: block of CI-AMPARs with 500 µM kainate, −80 mV, pentamidine 200 μM): 61%; remaining activity at 100 µM ([5]; read-out: Idrug/Icontrol, glutamate-induced steady-state current): 140 ± 10%
8 | N=C(N)c1ccc2cc(OC(=O)c3ccc(NC4=NCCN4)cc3)ccc2c1 [Sepimostat] | 66 ± 5 (n=4) % | 56 ± 6 µM | 3.5 µM | 71 ± 9 µM | 0.9 | 0.55 | 102 µM | 7 µM | 0.88 ± 0.12 and 0.9 | inhibition remaining in trapping protocol after 10 s without kainate ([1]; 300 µM sepimostat): 21% ± 2%; recovery (washout) kinetics τ, CP-AMPARs ([1]; in presence of kainate): 1.5 ± 0.3 s; IC50 ([1]; kainate-induced current, −80 mV; listed as sepimostat; read-out: IC50, µM CP-AMPARs): ~55 µM; δb CP-AMPARs (fraction of membrane electric field to channel site) ([1]; voltage dependence −140 to +40 mV fitted by eq. 1; listed as sepimostat): ~0.9; inhibition at 100 µM ([2]; 100 µM compound, kainate-induced current, −80 mV, read-out: Block at 100 µM, % CI-AMPARs): 37 ± 3%
9 | NS(=O)(=O)c1cc2c(cc1Cl)NC(C1CC3C=CC1C3)NS2(=O)=O (stereo not drawn) [cyclothiazide] | – | – | – | – | – | – | – | – | – | fold induction at 100 µM ([2]; read-out: increase in current at 50 µM kainate): 8 ± 2; fold induction at 100 µM ([2]; read-out: potentiation of responses evoked by 100 µM kainate): 6 ± 3; fold induction at 100 µM ([5]; read-out: enhancement of glutamate-induced currents): 12 ± 3
10 | N#Cc1ccccc1-c1cc(-c2ccccn2)cn(-c2ccccc2)c1=O [perampanel] | – | – | – | – | – | – | – | – | – | inhibition of CP-AMPARs in presence of kainate ([1]; 100 nM perampanel): 50%–70%; inhibition at 0.1 µM ([2]; read-out: inhibition of kainate-induced CI-AMPAR currents in absence of cyclothiazide, 100 nM perampanel): 74%
11 | IEM-1925 | – | – | – | – | – | – | – | – | – | inhibition of CP-AMPARs with 50 µM kainate [1, 10]: 40% ± 3%; inhibition of CP-AMPARs with 500 µM kainate [1, 10]: 48% ± 5%

Reference: paper PMC11496081, “The diversity of AMPA receptor inhibition mechanisms among amidine-containing compounds” (Frontiers in Pharmacology, 2024)
